Laboratory results: patent US20230092005A1, “COMPOSITIONS AND METHODS FOR TREATING CANCER AND TUMOR” (OBLATO, INC., priority 2020, published 2023)
Values joined by “and” are separate entries in the source; they are usually repeats but may differ in a detail not shown here. Equal entries are not always repeated.

Test system: human A549 lung cancer xenografts
Experiment: TUNEL staining of extracted A549 xenograft tumors (apoptosis counting and grading)
Type: in vivo, BALB/c Nude mouse
Conditions: for Apoptosis grade + : number of animals / Apoptosis grade ++ (moderate): number of animals / Apoptosis grade +++ (marked): number of animals / Apoptosis grade ++++ (severe): number of animals / Apoptosis grade ± (minimal): number of animals: N=10; for Apoptosis counting No. (group mean ± S.D.): TUNEL positive cells per 1 mm^2
Source text: Histopathological test: The extracted tumors were fixed in 10% neutral buffered formalin solution (10% neutral buffered formalin). After sectioning the tumors to a certain thickness (about 3 mm), those were subjected to the general preparation procedure, embedded in paraffin, cut into 4 to 5 μm size, and tissue sections were stained with Hematoxylin and Eosin (H&E) and TUNEL. IHC (Immunohistochemistry) slides, cut into 4 to 5 μm size, were produced and sent to the sponsor (Negative Control Group (G1), Test substance 2 (G3, Animal ID Nos.: 1301, 1302, 1303, 1307, 1310), Test substance 3 (G4, Animal ID Nos.: 1401, 1402, 1404, 1408, 1409)). Determination of TUNEL staining results: After histological examination of the entire cross-section of the tumor for grading (±, +, ++, +++, ++++) of apoptosis, the nucleated brown stained cells were read as […] was counted. The apoptosis of the tumor was determined by the number of positive cells per […] (1 mm^2). The apoptosis of the tumor was determined by calculating the average number of positive cells and graded into the corresponding severity. The number of positive cells in which apoptosis occurred was determined by counting the number of positive cells per unit area (1 mm^2). Histopathological test (Table 7, FIGS. 7-11): The extracted fixed tumor was cut to a certain thickness (about 3 mm), then subjected to general tissue treatment, paraffin-embedded to produce blocks, and tissue sections of 4 to 5 μm in size were prepared. Then, Hematoxylin & Eosin (H&E) staining and TUNEL staining were performed.

Q: What does the source list for `CC(C)(C)/[N+]([O-])=C/c1ccc(S(=O)(=O)O)cc1S(=O)(=O)O` [OKN-007, Disodium 4-[(Z)-[tert-butyl(oxido)azaniumylidene]methyl]benzene-1,3-disulfonate]?
A: Apoptosis grade + : number of animals (G2, 150 mg/kg P.O.): 1; Apoptosis grade ++ (moderate): number of animals (G2, 150 mg/kg P.O.): 0; Apoptosis grade +++ (marked): number of animals (G2, 150 mg/kg P.O.): 0; Apoptosis grade ++++ (severe): number of animals (G2, 150 mg/kg P.O.): 0; Apoptosis grade ± (minimal): number of animals (G2, 150 mg/kg P.O.): 9; Apoptosis counting No. (group mean ± S.D.) (G2, 150 mg/kg P.O.): 79.6±29.8 No./mm^2 and 79.6 ± 20.8 No./mm^2; Apoptosis grade + : number of animals (G3, 300 mg/kg P.O.): 2; Apoptosis grade ++ (moderate): number of animals (G3, 300 mg/kg P.O.): 0; Apoptosis grade +++ (marked): number of animals (G3, 300 mg/kg P.O.): 0; Apoptosis grade ++++ (severe): number of animals (G3, 300 mg/kg P.O.): 0; Apoptosis grade ± (minimal): number of animals (G3, 300 mg/kg P.O.): 8; Apoptosis counting No. (group mean ± S.D.) (G3, 300 mg/kg P.O.): 91.5±32.2 No./mm^2; Apoptosis grade + : number of animals (G4, 600 mg/kg P.O.): 5; Apoptosis grade ++ (moderate): number of animals (G4, 600 mg/kg P.O.): 2; Apoptosis grade +++ (marked): number of animals (G4, 600 mg/kg P.O.): 0; Apoptosis grade ++++ (severe): number of animals (G4, 600 mg/kg P.O.): 0; Apoptosis grade ± (minimal): number of animals (G4, 600 mg/kg P.O.): 3; Apoptosis counting No. (group mean ± S.D.) (G4, 600 mg/kg P.O.): 149.9±59.5 No./mm^2
